Results from patent US5873359A, “Methods and devices for treating pulmonary vasoconstriction and asthma” (The General Hospital Corporation, priority 1994, dated 1999).

Key:
[1] = tested on: PPHN; assay: NO inhalation in two more infants with PPHN; assay type: in vivo, human
Text: Subsequent subjects. Two more infants with PPHN have been treated by NO inhalation.

[2] = tested on: pulmonary hypertension in ARDS; assay: Inhaled NO versus i.v. prostacyclin in adult with ARDS (first subject); assay type: in vivo, human; conditions: for QVA /QT: sulphur hexafluoride, from 38%
Experimental: First subject. The patient had suffered for three weeks from adult respiratory distress syndrome (ARDS) due to aspiration pneumonia. There was diffuse pulmonary edema and a large QVA /QT (30%). After 21 days of venovenous extracorporeal membrane oxygenator support (3 liters/min blood flow), the mean PAP was 55 mm Hg.
The short term effects of inhaled nitric oxide were compared with those of i.v. prostacyclin (PGI2; 5ng/kg/min). Mean pulmonary arterial pressure (PAP), right ventricular ejection fraction (RVEF) and gas exchange variables were evaluated. RVEF was assessed by thermodilution, and gas exchange alterations were analyzed using the multiple inert gas elimination technique (MIGET). MIGET and RVEF date were obtained on two different occasions. Ventilator settings were tidal volume 6 ml/kg, respiratory rate 14/min, Fi O2 0.4-0.48 and 5 cm H2 O of PEEP (positive end expiratory pressure).

[3] = tested on: non-constricted human lung; assay: 40 ppm NO in healthy volunteers breathing air (non-constricted lung); assay type: in vivo
Experimental: The effects of breathing 40 ppm NO were studied in five awake, healthy human volunteer subjects inhaling various gas mixtures for 10 min periods, with measurements starting at 6 min.

[4] = tested on: methacholine bronchoconstriction; assay: Dose-response of intermittent NO inhalation during methacholine infusion; assay type: in vivo, Hartley strain guinea pigs
Experimental: Male Hartley strain guinea pigs (300-440g body wt) were anesthetized with α-chloralose (50 mg/kg) and urethane (500 mg/kg) (Drazen et al., J. Appl. Physiol. 48:613-618, 1980). A tracheostomy was performed, and the animals were intubated with a tubing adaptor (ID 1.65 mm) and ventilated with a small animal ventilator (Harvard Apparatus, a division of Ealing Scientific, Natick, Mass.) at 8 ml/kg and 60 breaths/min. A jugular vein was cannulated for intravenous administration of drugs. The chest was opened by bilateral excision of a portion of the ribs anteriorly so that the lungs were exposed to atmospheric pressure (Shore and Drazen, J. Appl. Physiol. 67:2504-2511, 1989). A positive end expiratory pressure of 3-4 cmH2 O was provided.
Guinea pigs were then placed inside a plethysmograph (Amdur and Mead, Am. J. Physiol. 192:363-368, 1958), that was connected to a large reservoir containing copper mesh to maintain the plethysmograph isothermal. Plethysmograph pressure was measured with a differential pressure transducer (Celesco, Canoga Park, Calif.); the opposite side of this transducer was connected to a similar reservoir. Pressure at the airway opening was measured from a side tap in the tracheal canula. Transpulmonary pressure was measured with a differential pressure transducer (Celesco) as the difference between airway opening pressure and the pressure inside the plethysmograph. Flow was obtained by electrical differentiation of the volume (plethysmograph pressure) signal. Tidal volume was measured by recording the pressure changes in the body plethysmograph. Volume, flow, and transpulmonary pressure signals were recorded on a strip chart (General Scanning, Watertown, Mass.). Pulmonary resistance and dynamic compliance were calculated by a computer program according to the method of von Neergard and Wirz (Z. Klin. Med. 105:35-50, 1927; Z. Klin. Med. 105:52-82, 1927).
The apparatus and conditions used are diagrammed in FIG. 7. The inspired gas was a precise mixture of nitrogen and oxygen blended via a Y piece tube and immediately diluted with nitric oxide (NO) to produce the correct inspired concentration in a 5 liter gas mixture bag. With volumetrically calibrated flowmeters, varying quantities of NO mixed with N2 were substituted for pure N2 to obtain the desired No concentration at an inspired oxygen concentration (FIO2) of 0.30-0.32. The total inflow gas rate was maintained at 2.5 l/min. The gas mixture was then sent via a 3 cm ID tube filled with 90 ml of soda lime to scavenge nitrogen dioxide (Stavert and Lehnert, Inhal. Toxicol. 2:53-67, 1990), then through a filter before the ventilator. Just after the ventilator inflow tube, a vacuum was adjusted to maintain the gas mixture bag nearly empty and continuously drive fresh gas into the ventilator circuit. The expiratory gas from the ventilator was scavenged with a vacuum and set up to maintain a positive end expiratory pressure of 3-4 cm H2 O. NO was obtained from Air Products and Chemicals, Inc. (Allentown, Pa.) as a mixture of 1,034 ppm NO in pure nitrogen. A chemiluminescence NO/NOx analysis (Fontijin et al., Anal. Chem. 42:575-579, 1970) was performed before and after the soda lime filled tube, and just before the inspiratory valve of the ventilator (see FIG. 7) to assess the nitrogen dioxide concentration and adjust the flowmeters to provide the different levels of NO concentration.
ii. Dose-response study of intermittent NO inhalation during methacholine infusion. After baseline measurements, the same guinea pigs were given an intravenous infusion of a potent bronchoconstrictor, methacholine, at a rate of 2.5-7.5 μg/kg/min in order to reach a medium level of bronchoconstriction (3 to 4 fold the baseline lung resistance). After a stable period, each animal was ventilated with a series of gas mixtures of 5, 10, 25, 50, 100 and 300 ppm NO for 10 minutes at constant FIO2 (0.30-0.32). […]

[5] = air (21% O2) + 40 ppm NO, n = 5, X ± S.D.
[6] = NO-containing gas mixtures (FIGS. 9-12)

## [N]=O [NO, nitric oxide]
[1]; 20-80 ppm NO
  preductal oxygenation: increases in preductal oxygenation
  response: excellent response
[1]; 20-80 ppm NO, two infants
  survival: both survived longterm
[1]; one of the infants, NO inhalation alone
  need for ECMO: ECMO was altogether avoided
[2]; 18 ppm NO in oxygen
  decrease of mean PAP: 12-14 mm Hg
  mean PAP: 38-42 mm Hg
  reduction of PVR: 44%
[2]; 18 ppm NO in oxygen, remaining constant
  wedge pressure: ~15 mm Hg
[2]; 18 ppm NO in oxygen, unchanged
  cardiac output: ~7 L/min
[2]; 18 ppm NO
  QVA /QT: 26%
[2]; 36 ppm NO
  QVA /QT: 33%
[2]; increasing NO concentration to 36 ppm
  additional vasodilation: 2-5 mm Hg
[2]; inhaled NO
  change of systemic arterial pressure: no change of systemic arterial pressure
[2]; inhaled NO and i.v. PGI2, text
  PAP and RVEF: lowered PAP and improved RVEF
[2]; inhaled NO, in contrast to PGI2
  PaO2, right-to-left shunt and VD /VT: increased PaO2 and decreased right-to-left shunt and VD /VT
[2]; occasion #1, NO 18 ppm
  MAP: 78 mm Hg
  PAP: 42 mm Hg
  PCWP: 15 mm Hg
  PaO2: 146 torr
  QA /QT: 26%
  VD /VT: 43%
  low VD /Q: 1%
[2]; occasion #1, NO 36 ppm
  MAP: 75 mm Hg
  PAP: 37 mm Hg
  PCWP: 15 mm Hg
  PaO2: 127 torr
  QA /QT: 33%
  VD /VT: 40%
  low VD /Q: 0%
[2]; occasion #2, NO 18 ppm
  MAP: 88 mm Hg
  PAP: 38 mm Hg
  PCWP: 14 mm Hg
  PaO2: 127 torr
  RVEF: 36%
[2]; occasion #2, NO 36 ppm
  MAP: 86 mm Hg
  PAP: 36 mm Hg
  PCWP: 12 mm Hg
  PaO2: 113 torr
  RVEF: 39%
[3]; 40 ppm NO, normal (21% v/v) O2
  pulmonary or systemic vasodilatory effect: no pulmonary or systemic vasodilatory effect
[3]; air (21% O2) + 40 ppm NO, n = 5
  PVR: 0.61 mmHg · min/l
[3]; [5]
  CO: 6.40 ± 0.88 L/min
  CVP: 6.3 ± 1.7 mmHG
  MAP: 88.0 ± 3.7 mmHg
  PAP: 14.0 ± 1.8 mmHg
  PCWP: 10.1 ± 2.5 mmHg
  PaCO2: 38 ± 5 mmHg
  PaO2: 94.7 ± 16.3 mmHg
  SaO2: 96.0 ± 1.0%
[4]; 5 ppm NO
  bronchodilation: produced bronchodilation
[4]; 100 or 300 ppm NO
  airway resistance: greater and more rapid reduction of airway resistance
[4]; 300 ppm NO
  reversal of methacholine bronchoconstriction: Complete reversal of methacholine bronchoconstriction
[4]; [6]
  lung compliance: increase of lung compliance
  lung resistance: consistent, rapid and profound reduction of lung resistance
[4]; after inhalation
  onset of dilation: within a few seconds
[4]; nitric oxide inhalation
  reversal of methacholine bronchoconstriction: reversed the profound bronchoconstriction
